Data taken from article PMC10489980, “Design of Potent and Salt-Insensitive Antimicrobial Branched Peptides” (Polymers, 2023).
Where two headings read alike, the source gives them in different places. Positions of bridges follow the written chain, without caps; N, C: chain ends. Residues, ends and D or L forms follow the SMILES beside them. Chains are numbered I, II in the order given. *: point of attachment. Fmoc = O=C(OCC1c2ccccc2-c2ccccc21)*

Columns and labels:
Assay type in all cases: cell-based
[1] = tested on: Candida albicans ATCC 37092
Excerpt: (§1) Ten organisms obtained from the American Type Culture Collection (ATCC; Rockville, MD) were used for antimicrobial assays. Four Gram-negative bacteria included Escherichia coli ATCC 25922, Pseudomonas aeruginosa ATCC 27853, Klebsiella oxytoca ATCC 49131, and Proteus vulgaris ATCC 49132. The three Gram-positive bacteria were Staphylococcus aureus 29213, Micrococcus luteus ATCC 49,732, and Enterococcus faecalis ATCC 29212. The three fungi were Candida albicans ATCC 37092, Candida kefyr ATCC 37095, and Candida tropicalis ATCC 37097. The clinical isolates were obtained from Singapore General Hospital (SGH). They are Enterococcus faecium, Staphylococcus aureus, Klebsiella pneumoniae, Acinetobacter baumannii, Pseudomonas aeruginosa, and Enterobacter species. The strains were incubated in trypticase soy broth (TSB), which was prepared in double distilled water and autoclaved for sterilization. TSB was purchased from Becton-Dickinson (Cockeysville, MD, USA).
(§2) Antimicrobial Assays. A sensitive and reproducible two-stage radial diffusion antimicrobial assay of Lehrer et al. was employed. A 1–4 × 10^6 colony-forming unit/mL of the test organism was mixed with 10 mL of molten underlay gel solution and poured into Petri dishes to form a uniform layer. The gel solution consisted of 10 mM sodium phosphate buffer, 0.03% TSB, and 0.02% Tween-20, with the addition of 100 mM NaCl in the case of high-salt conditions. Upon gel solidification, gel wells were made by a 3-mm diameter template in an evenly spaced array. A 5 µL aliquot of a serial half-log dilution of test peptides at seven concentrations was added to each well after removal of gel plugs. The dishes were incubated at 37 °C for 3 h to allow peptide diffusion into the underlay gels. Gels were overlaid with 10 mL of 1% agarose in 6% TSB (wt/vol). After additional incubation at 37 °C for 16–24 h, the diameter of the clear zone surrounding the wells (colony-free) was measured under a microscope. Antimicrobial activities were expressed in units (0.1 mm = 1 unit), and the MICs (in µM) were determined from the x-intercepts of the dose-response curves. Experiments were performed in triplicates.

Candida kefyr ATCC 37095 = tested on: Candida kefyr ATCC 37095
Excerpt: as §1, §2

[2] = tested on: Candida tropicalis ATCC 37097
Excerpt: as §1, §2

[3] = tested on: Enterococcus faecalis ATCC 29212
Excerpt: as §1, §2

[4] = tested on: Escherichia coli ATCC 25922
Excerpt: as §1, §2

[5] = tested on: Klebsiella oxytoca ATCC 49131
Excerpt: as §1, §2

[6] = tested on: Micrococcus luteus ATCC 49,732
Excerpt: as §1, §2

[7] = tested on: Proteus vulgaris ATCC 49132
Excerpt: as §1, §2

[8] = tested on: Pseudomonas aeruginosa ATCC 27853
Excerpt: as §1, §2

[9] = tested on: Staphylococcus aureus 29213
Excerpt: as §1, §2

SMILES	MIC, C. albicans, H-Salt ([1]; ATCC 37092, 3 h) [µM]	MIC, C. albicans, L-Salt ([1]; ATCC 37092, 3 h) [µM]	MIC, C. kefyr, H-Salt (Candida kefyr ATCC 37095; ATCC 37095, 3 h) [µM]	MIC, C. kefyr, L-Salt (Candida kefyr ATCC 37095; ATCC 37095, 3 h) [µM]	MIC, C. tropicalis, H-Salt ([2]; ATCC 37097, 3 h) [µM]	MIC, C. tropicalis, L-Salt ([2]; ATCC 37097, 3 h) [µM]	MIC, E. faecalis, H-Salt ([3]; ATCC 29212, 3 h) [µM]	MIC, E. faecalis, L-Salt ([3]; ATCC 29212, 3 h) [µM]	MIC, E. coli, H-Salt ([4]; ATCC 25922, 3 h) [µM]	MIC, E. coli, L-Salt ([4]; ATCC 25922, 3 h) [µM]	MIC, K. oxytoca, H-Salt ([5]; ATCC 49131, 3 h) [µM]	MIC, K. oxytoca, L-Salt ([5]; ATCC 49131, 3 h) [µM]	MIC, M. luteus, H-Salt ([6]; ATCC 49, 3 h) [µM]	MIC, M. luteus, L-Salt ([6]; ATCC 49, 3 h) [µM]	MIC, P. vulgaris, H-Salt ([7]; ATCC 49132, 3 h) [µM]	MIC, P. vulgaris, L-Salt ([7]; ATCC 49132, 3 h) [µM]	MIC, P. aeruginosa, H-Salt ([8]; ATCC 27853, 3 h) [µM]	MIC, P. aeruginosa, L-Salt ([8]; ATCC 27853, 3 h) [µM]	MIC, S. aureus, H-Salt ([9]; 29213, 3 h) [µM]	MIC, S. aureus, L-Salt ([9]; 29213, 3 h) [µM]	also measured
CC(C)C[C@H](NC(=O)[C@@H](N)CCCNC(=N)N)C(=O)N[C@@H](Cc1ccc(O)cc1)C(=O)N[C@@H](CCCNC(=N)N)C(=O)NCCC[C@H](NC(=O)[C@H](CCCNC(=O)[C@H](CCCNC(=N)N)NC(=O)[C@H](Cc1ccc(O)cc1)NC(=O)[C@H](CC(C)C)NC(=O)[C@@H](N)CCCNC(=N)N)NC(=O)[C@H](CCCNC(=O)[C@H](CCCNC(=N)N)NC(=O)[C@H](Cc1ccc(O)cc1)NC(=O)[C@H](CC(C)C)NC(=O)[C@@H](N)CCCNC(=N)N)NC(=O)[C@H](CCCNC(=O)[C@H](CCCNC(=N)N)NC(=O)[C@H](Cc1ccc(O)cc1)NC(=O)[C@H](CC(C)C)NC(=O)[C@@H](N)CCCNC(=N)N)NC(=O)[C@H](CCCNC(=N)N)NC(=O)[C@H](Cc1ccc(O)cc1)NC(=O)[C@H](CC(C)C)NC(=O)[C@@H](N)CCCNC(=N)N)C(N)=O [O5R] (HELM PEPTIDE1{R.L.Y.R.[Orn].[Orn].[Orn].[Orn].[am]}|PEPTIDE2{R.L.Y.R}|PEPTIDE3{R.L.Y.R}|PEPTIDE4{R.L.Y.R}|PEPTIDE5{R.L.Y.R}$PEPTIDE1,PEPTIDE2,8:R3-4:R2|PEPTIDE1,PEPTIDE3,7:R3-4:R2|PEPTIDE1,PEPTIDE4,6:R3-4:R2|PEPTIDE1,PEPTIDE5,5:R3-4:R2$$$V2.0; N-terminus assumed)	1.5	0.9	0.7	0.7	0.7	1.1	> 500	10.2	2.3	0.9	2.4	1.8	1.7	1.3	19.2	8.1	3.1	2.0	6.5	5.4	–
CC(=O)NCCC[C@H](NC(=O)[C@H](CCCNC(=N)N)NC(=O)[C@H](Cc1ccc(O)cc1)NC(=O)[C@H](CC(C)C)NC(=O)[C@@H](N)CCCNC(=N)N)C(=O)NCCC[C@H](NC(=O)[C@H](CCCNC(=N)N)NC(=O)[C@H](Cc1ccc(O)cc1)NC(=O)[C@H](CC(C)C)NC(=O)[C@@H](N)CCCNC(=N)N)C(=O)NCCC[C@H](NC(=O)[C@H](CCCNC(=N)N)NC(=O)[C@H](Cc1ccc(O)cc1)NC(=O)[C@H](CC(C)C)NC(=O)[C@@H](N)CCCNC(=N)N)C(=O)NCCC[C@H](NC(=O)[C@H](CCCNC(=N)N)NC(=O)[C@H](Cc1ccc(O)cc1)NC(=O)[C@H](CC(C)C)NC(=O)[C@@H](N)CCCNC(=N)N)C(N)=O [iO4R] (HELM PEPTIDE1{R.L.Y.R.[Orn]}|PEPTIDE2{[ac]}|PEPTIDE3{R.L.Y.R.[Orn]}|PEPTIDE4{R.L.Y.R.[Orn]}|PEPTIDE5{R.L.Y.R.[Orn].[am]}$PEPTIDE1,PEPTIDE2,5:R3-1:R2|PEPTIDE1,PEPTIDE3,5:R2-5:R3|PEPTIDE3,PEPTIDE4,5:R2-5:R3|PEPTIDE4,PEPTIDE5,5:R2-5:R3$$$V2.0)	–	–	–	–	–	–	–	–	–	–	–	–	–	–	–	–	–	–	–	–	MIC, C. albicans, H-Salt ([1]; ATCC 37092, radial diffusion assay, high-salt (100 mM NaCl), triplicates): 1.4 µM; MIC, C. albicans, L-Salt ([1]; ATCC 37092, radial diffusion assay, low-salt (without NaCl), triplicates): 1.3 µM; MIC, C. kefyr, H-Salt (Candida kefyr ATCC 37095; ATCC 37095, radial diffusion assay, high-salt (100 mM NaCl), triplicates): 0.8 µM; MIC, C. kefyr, L-Salt (Candida kefyr ATCC 37095; ATCC 37095, radial diffusion assay, low-salt (without NaCl), triplicates): 0.8 µM; MIC, C. tropicalis, H-Salt ([2]; ATCC 37097, radial diffusion assay, high-salt (100 mM NaCl), triplicates): 0.8 µM; MIC, C. tropicalis, L-Salt ([2]; ATCC 37097, radial diffusion assay, low-salt (without NaCl), triplicates): 1.4 µM; MIC, E. faecalis, H-Salt ([3]; ATCC 29212, radial diffusion assay, high-salt (100 mM NaCl), triplicates): > 500 µM; MIC, E. faecalis, L-Salt ([3]; ATCC 29212, radial diffusion assay, low-salt (without NaCl), triplicates): 5.4 µM; MIC, E. coli, H-Salt ([4]; ATCC 25922, two-stage radial diffusion assay, high-salt (underlay gel 10 mM sodium phosphate, 0.03% TSB, 0.02% Tween-20, with 100 mM NaCl), 37 °C, x-intercept of dose-response curve, triplicates): 4.4 µM; MIC, E. coli, L-Salt ([4]; ATCC 25922, two-stage radial diffusion assay, low-salt (underlay gel 10 mM sodium phosphate, 0.03% TSB, 0.02% Tween-20, without NaCl), 37 °C, x-intercept of dose-response curve, triplicates): 0.9 µM; MIC, K. oxytoca, H-Salt ([5]; ATCC 49131, radial diffusion assay, high-salt (100 mM NaCl), triplicates): 6.8 µM; MIC, K. oxytoca, L-Salt ([5]; ATCC 49131, radial diffusion assay, low-salt (without NaCl), triplicates): 1.6 µM; MIC, M. luteus, H-Salt ([6]; ATCC 49,732, radial diffusion assay, high-salt (100 mM NaCl), triplicates): 2.0 µM; MIC, M. luteus, L-Salt ([6]; ATCC 49,732, radial diffusion assay, low-salt (without NaCl), triplicates): 2.1 µM; MIC, P. vulgaris, H-Salt ([7]; ATCC 49132, radial diffusion assay, high-salt (100 mM NaCl), triplicates): 23.2 µM; MIC, P. vulgaris, L-Salt ([7]; ATCC 49132, radial diffusion assay, low-salt (without NaCl), triplicates): 4.7 µM; MIC, P. aeruginosa, H-Salt ([8]; ATCC 27853, radial diffusion assay, high-salt (100 mM NaCl), triplicates): 4.0 µM; MIC, P. aeruginosa, L-Salt ([8]; ATCC 27853, radial diffusion assay, low-salt (without NaCl), triplicates): 4.4 µM; MIC, S. aureus, H-Salt ([9]; strain 29213, radial diffusion assay, high-salt (100 mM NaCl), triplicates): 4.8 µM; MIC, S. aureus, L-Salt ([9]; strain 29213, radial diffusion assay, low-salt (without NaCl), triplicates): 6.7 µM
CC(=O)N[C@@H](CCCNC(=O)[C@H](CCCNC(=N)N)NC(=O)[C@H](Cc1ccc(O)cc1)NC(=O)[C@H](CC(C)C)NC(=O)[C@@H](N)CCCNC(=N)N)C(=O)N[C@@H](CCCNC(=O)[C@H](CCCNC(=N)N)NC(=O)[C@H](Cc1ccc(O)cc1)NC(=O)[C@H](CC(C)C)NC(=O)[C@@H](N)CCCNC(=N)N)C(=O)N[C@@H](CCCNC(=O)[C@H](CCCNC(=N)N)NC(=O)[C@H](Cc1ccc(O)cc1)NC(=O)[C@H](CC(C)C)NC(=O)[C@@H](N)CCCNC(=N)N)C(N)=O [O3R]	18.2	6.4	1.4	0.8	1.9	2.1	> 500	49.8	8.7	0.9	1.7	1.7	16.4	5.4	24.6	6.9	8.9	1.9	93.4	9.6	–
CC(C)C[C@H](NC(=O)[C@@H](N)CCCNC(=N)N)C(=O)N[C@@H](Cc1ccc(O)cc1)C(=O)N[C@@H](CCCNC(=N)N)C(=O)N[C@@H](CCCCNC(=O)[C@H](CCCCNC(=O)[C@H](CCCCNC(=O)OCC1c2ccccc2-c2ccccc21)NC(=O)[C@H](CCCNC(=N)N)NC(=O)[C@H](Cc1ccc(O)cc1)NC(=O)[C@H](CC(C)C)NC(=O)[C@@H](N)CCCNC(=N)N)NC(=O)[C@H](CCCNC(=N)N)NC(=O)[C@H](Cc1ccc(O)cc1)NC(=O)[C@H](CC(C)C)NC(=O)[C@@H](N)CCCNC(=N)N)C(N)=O [iK3R] (I: H-RLYRK-NH2 / II: H-RLYRK(Fmoc) / III: H-RLYRK; amide I:5-III:C, II:C-III:5)	0.8	0.7	0.7	0.8	1.2	0.8	0.8	0.5	0.4	0.6	0.7	0.7	0.7	0.6	0.5	0.7	0.8	0.7	0.7	0.5	–
